The structures appear in SMILES notation.

The target of one experiment is T1, BRD4-BD12 (Homo sapiens, UniProt O60885).
T1 construct: dual bromodomains (BRD4-BD12 (1-477), BRD4-BD12 (1-472)); six-His tag (N); made in house; host or cells: E. coli BL21-CodonPlus (DE3)
In words: Alphascreen binding assay, BRD4(1 2) H4. The conditions noted are these: BRD4 dual bromodomains with acetylated Histone 4 peptide, read-out: Biochemical activity (IC50 μM) BRD4(1 2) H4. A digest of the protocol:
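N-His-tagged human BRD4 tandem bromodomains (1-477 or 1-472, E. coli-expressed) and biotinylated tetra-acetylated histone H4 1-21 peptide, preincubated 1 h at room temperature with compound in HEPES pH 7.5/NaCl/BSA/Triton/DTT. AlphaScreen nickel-chelate/streptavidin beads added (7.5 μg/mL), read after 30 min. pIC50 from four-parameter fit of control-normalized data.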
A general note: In Alpha technology, singlet oxygen from a donor bead excites a nearby acceptor bead.

Experiment [1] deals with cancer cell lines / MV-4-11 Myc reporter cell line. The experiment can be described thus: Bromodomain cell assays of Example 8 (at least one of them). The class given is cell-based. The conditions noted are these: Homo sapiens, MV4-11; at least one of the bromodomain cell assays described in Example 8. The method in brief: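 Antiproliferation: 3000 cells/well, 8-point 1:3 titration from 10 µM final, 0.2% DMSO, 72 h, CellTiter Glo luminescence. Myc reporter: MV-4-11 with E-box firefly luciferase, 25,000 cells, same titration, 24 h; One-Glo luminescence with CellTiter-Fluo viability; 10 µM JQ1 as low control. pIC50 from four-parameter fit.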

The next experiment relates to MV-4-11. The experiment can be described thus: Oncology cell growth assay, MV-4-11 3 d growth. It is filed as cell-based. The settings on record: Homo sapiens, MV4-11; MV-4-11 cells, 72 hours, CellTiter Glo; read-out: Cell activity (IC50 μM) MV-4-11 3 d-Growtb. The method in brief: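 MV-4-11 AML cells (MLL-AF4) seeded 3000/well, then exposed to 8-point 1:3 compound dilutions up to 10 μM final, 0.2% DMSO, for 72 h. Growth read by CellTiter Glo luminescence, normalised to DMSO controls; pIC50 from four-parameter fit.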
In general terms: Cellular ATP, detected with luciferase, serves as a proxy for viable cell number.

The subject of experiment [2] is cancer cells such leukemia and lymphoma, multiple myeloma cells, NUT midline carcinoma and glioblastoma cells. The settings on record: literature; cited from earlier work.
Experiment [3] has as its system MYC promoter / c-myc transcription in MV-4-11 cells. The conditions noted are these: literature (Dawson M A et al. 2011); cited from earlier work.

A word on the IC50: it is the concentration at which inhibition is half-maximal. On to `Cc1noc(C)c1-c1cnc2c(-c3cnn(CC(F)(F)F)c3)nn(CC3(F)CCCCC3)c2c1` [Compound P-2089, 4-[1-[(1-fluorocyclohexyl)methyl]-3-[1-(2,2,2-trifluoroethyl)pyrazol-4-yl]pyrazolo[4,3-b]pyridin-6-yl]-3,5-dimethyl-isoxazole], for which the IC50 is not above 1 µM on BRD4-BD12, less than 10 µM in experiment [1] and not above 1 µM in the experiment with MV-4-11.
As for `Cc1nnn(C)c1-c1cnc2c(-c3cnn(C)c3)nn(CC3CCC(F)(F)CC3)c2c1` [Compound P-2090, 1-[(4,4-difluorocyclohexyl)methyl]-6-(3,5-dimethyltriazol-4-yl)-3-(1-methylpyrazol-4-yl)pyrazolo[4,3-b]pyridine], the IC50 was not above 1 µM on BRD4-BD12, less than 10 µM in experiment [1] and not above 1 µM in the experiment on MV-4-11.
As for `Cc1noc(C)c1-c1cnc2ncn(C(c3ccccc3)c3ccccn3)c2c1` (stereo not shown) [Compound P-2103, 3,5-dimethyl-4-[1-[phenyl(2-pyridyl)methyl]imidazo[4,5-b]pyridin-6-yl]isoxazole], the IC50 on BRD4-BD12 was not above 1 µM; in experiment [1] it was less than 10 µM; in the experiment with MV-4-11, not above 1 µM.
As for `Cc1noc(C)c1-c1cnc2c(c1)ncn2C(c1ccccc1)c1ccccn1` (stereo not shown) [Compound P-2104, 3,5-dimethyl-4-[3-[phenyl(2-pyridyl)methyl]imidazo[4,5-b]pyridin-6-yl]isoxazole], the IC50 on BRD4-BD12 was 1 to 10 µM; in experiment [1] it was less than 10 µM; in the experiment on MV-4-11, 10 to 200 µM.
For `Cc1sc2c(c1C)C(c1ccc(Cl)cc1)=N[C@@H](CC(=O)OC(C)(C)C)c1nnc(C)n1-2` [JQ1], the “activity in variety of cancer cells” value in experiment [2] was “have shown activity”.
In the case of `COc1cc2c(cc1-c1c(C)noc1C)ncc1[nH]c(=O)n([C@H](C)c3ccccn3)c12` [iBET 151], in experiment [3], the “BRD4 recruitment to the MYC promoter” value is recorded as “disrupt” and the c-myc transcription entry is recorded as “downregulate”. Also, in experiment [2], the “activity in variety of cancer cells” value is on record as “have shown activity”.

These data come from US9856259B2, “Heterocyclic compounds and uses thereof” (Plexxikon Inc., priority 2014, dated 2018).
